In series [1] the test system is Escherichia coli NIHJ. Nature of the series: MIC by standard agar dilution method of the Japan Society of Chemotherapy. The series is classed as cell-based. The settings on record: Mueller Hinton agar, 18 hours at 37° C., Examples 1, 2, 4 as sodium salts, Example 5 as free acid. On the procedure:
(§1) Minimal inhibitory concentration (MIC) was determined by the standard agar dilution method of the Japan Society of Chemotherapy.
(§2) The compounds described in Examples 1, 2 and 4 were dissolved in sterilized water; the compound described in Example 5 was dissolved in acetone-water (1:1); and the control compound, cephaloglycin, was dissolved in a 3% sodium hydrogen carbonate solution.
(§3) Serial two-fold dilutions were made from the above solutions.
(§4) One-ml aliquots of each dilution were mixed with 9 ml of Mueller Hinton agar in petri-dishes to make agar plates containing the compound at serially diluted concentrations. After agar hardened, plates were put in an incubator at 37° C. for 1.5-2 hours with the lids slightly open to evaporate acetone off the plates.
(§5) Test organisms were grown for 18 hours at 37° C. in Trypticase Soy broth and diluted in saline to approximately 10^6 colony forming units per ml. A loopful of each cell suspension was applied on the agar plate mentioned above and the plates were incubated for 18 hours at 37° C. before MIC was determined.
(§6) MIC values of the compounds described in Examples 1, 2 and 4 were determined as their sodium salts and the compound described in Example 5 was determined as a free carboxylic acid.
In general terms: In agar dilution the substance is mixed into plates at graded concentrations.

In series [2] the test system is Klebsiella pneumoniae EK-6. Described as above. The series is classed as cell-based. The settings on record: EK6, Mueller Hinton agar, 18 hours at 37° C., Examples 1, 2, 4 as sodium salts, Example 5 as free acid. As to the method: as §1, §2, §3, §4, §5, §6
In series [3] the test system is Proteus morganii EP-14. The series is described as above. The series is classed as cell-based. The settings on record: Morganella morganii, EP14, Mueller Hinton agar, 18 hours at 37° C., Examples 1, 2, 4 as sodium salts, Example 5 as free acid. As to the method: as §1, §2, §3, §4, §5, §6
Series [4] deals with Pseudomonas aeruginosa EP-172. Described as above. The series is classed as cell-based. The settings on record: EP172, Mueller Hinton agar, 18 hours at 37° C., Examples 1, 2, 4 as sodium salts, Example 5 as free acid. As to the method:
as §1, §2, §3, §4, §5, §6

In series [5] the test system is Serratia marcescens ES-75. The series is described as above. The series is classed as cell-based. The settings on record: ES75, Mueller Hinton agar, 18 hours at 37° C., Examples 1, 2, 4 as sodium salts, Example 5 as free acid. On the procedure:
as §1, §2, §3, §4, §5, §6

Series [6] concerns Staphylococcus aureus 209P. The series is described as above. The series is classed as cell-based. The settings on record: Mueller Hinton agar, 18 hours at 37° C., Examples 1, 2, 4 as sodium salts, Example 5 as free acid. On the procedure: as §1, §2, §3, §4, §5, §6
Series [7] can be described thus: acute toxicity (mouse, oral administration). The settings on record: in vivo.

Turning to `CC(=O)OCC1=C(C(=O)O)N2C(=O)[C@@H](NC(=O)[C@H](N)c3ccccc3)[C@H]2SC1` [Cephaloglycin, cephaloglycin, reference compound], the MIC in series [1] worked out at 3.13 µg/mL; in series [2] it was 1.56 µg/mL; in series [3] it was 25 µg/mL; in series [4], 100 µg/mL; in series [5] it was 100 µg/mL; in series [6] it was 0.8 µg/mL.
Take `CC(=O)OCC1=C(C(=O)O)N2C(=O)[C@@H](NC(=O)[C@H](NC(=O)c3coc4cc(O)c(O)cc4c3=O)c3ccc(O)cc3)[C@H]2SC1` [Example 1, 7β-[D-2-(6,7-Dihydroxychromone-3-carboxamido)-2-(4-hydroxyphenyl)acetamido]-3-acetoxymethyl-3-cephem-4-carboxylic acid]: the MIC in series [1] worked out at 3.13 µg/mL; in series [2] it was 0.2 µg/mL; in series [3], 50 µg/mL; in series [4] it was 3.13 µg/mL; in series [5] it was 3.13 µg/mL; in series [6], 3.13 µg/mL. This molecule returned an LD50 in series [7] greater than 5000 mg/kg.
Regarding `CC(=O)OCC1=C(C(=O)O)N2C(=O)[C@@H](NC(=O)[C@H](NC(=O)c3coc4cc(OC(C)=O)c(OC(C)=O)cc4c3=O)c3ccc(O)cc3)[C@H]2SC1` [Example 2, 7β-[D-2-(6,7-Diacetoxychromone-3-carboxamido)-2-(4-hydroxyphenyl)acetamido]-3-acetoxymethyl-3-cephem-4-carboxylic acid], the MIC in series [1] was found to be 12.5 µg/mL; in series [2], 0.2 µg/mL; in series [3] it was 100 µg/mL; in series [4], 3.13 µg/mL; in series [5] it was 6.25 µg/mL; in series [6], 6.25 µg/mL. This molecule also came in with an LD50 in series [7] greater than 5000 mg/kg.
As for `CC(=O)OCC1=C(C(=O)O)N2C(=O)[C@@H](NC(=O)[C@H](NC(=O)c3coc4c(O)c(O)ccc4c3=O)c3ccc(O)cc3)[C@H]2SC1` [Example 4, 7β-[D-2-(7,8-Dihydroxychromone-3-carboxamido)-2-(4-hydroxyphenyl)acetamido]-3-acetoxymethyl-3-cephem-4-carboxylic acid], the MIC was determined as 12.5 µg/mL in series [1]; 0.2 µg/mL in series [2]; 100 µg/mL in series [3]; 1.56 µg/mL in series [4]; 100 µg/mL in series [5]; 0.8 µg/mL in series [6].
For the molecule `CC(=O)OCC1=C(C(=O)O)N2C(=O)[C@@H](NC(=O)[C@H](NC(=O)c3coc4c(OC(C)=O)c(OC(C)=O)ccc4c3=O)c3ccc(O)cc3)[C@H]2SC1` [Example 5, 7β-[D-2-(7,8-Diacetoxychromone-3-carboxamido)-2-(4-hydroxyphenyl)acetamido]-3-acetoxymethyl-3-cephem-4-carboxylic acid], the MIC in series [1] was found to be 3.13 µg/mL; in series [2], 0.4 µg/mL; in series [3], 25 µg/mL; in series [4], 3.13 µg/mL; in series [5] it was 25 µg/mL; in series [6] it was 6.25 µg/mL.

Broadly, the MIC is the smallest concentration in the dilution series that meets the test's criterion for growth inhibition. Usually LD50 stands for the dose at which mortality reaches 50%. A high value points to a less toxic substance.

(Values after patent US4285940A, “Cephalosporin derivatives, and antibacterial drugs comprising said derivatives” (Eisai Co., Ltd., priority 1979, dated 1981).)
